Reference: US5876694A, “Azavesamicols” (priority 1997, dated 1999)
Read-outs that look alike come from different tables or passages of the source.

Legend:
Assay type in all cases: in vivo, male Wistar rats
[1] = Blocking experiment 1: co-injection of (dl)-vesamicol with radiotracer; conditions: rat, iv, 60 min
Protocol: (§1) Two separate experiments each utilizing two groups of male Wistar rats (n=3) were performed.
(§2) Experiment 1. Animals in Group 1 (control) each received an intravenous injection of the radiotracer (4.7 uCi in 100 uL of 50% aq. EtOH). […] At 60 min post-injection, the animals were sacrificed and the tissues were harvested as outlined above.
(§3) Animals in Group 1 received a single i.v. injection of radiotracer.
(§4) Animals in Group 2 were administered with a mixture of the radiotracer an
(§5) All animals were sacrificed a
(§6) 60 min postradiotracer injection.

[2] = tested on: vesamicol receptor; assay: as above; conditions: 60 min, iv
Protocol: as §1, §2, §3, §4, §5, §6

[3] = Tissue distribution of radiotracer in rats; conditions: for tissue uptake at 5 min / tissue uptake at 0.5 h / tissue uptake at 1 h / tissue uptake at 3 h: rat
Protocol: Tissue Distribution Experiments
Four groups of male Wistar rats (n=4) weighing 200-350 g were used in these experiments. Each animal received, while under ether anesthesia, an intravenous injection of the radiotracer (3-5 uCi) dissolved in 0.1 mL of 50% aqueous ethanol. At 5, 30, 60 and 180 min post-injection, blood was collected from the anesthetized animal by cardiac puncture, and the animal was immediately sacrificed by cardiectomy. The organs and tissues of interest were harvested, transferred to preweighed tubes and counted in a Beckman gamma counter. The tubes were subsequently reweighed to give the weight of the corresponding tissues. Preweighed tubes containing 1 mL samples of a 1:100 dilution of the injected dose were also counted and used as reference for calculating the tissue accumulation of radioactivity. The accumulation of radiotracer was expressed as a percentage of injected dose per gram of tissue.
The animals were injected intravenously with 4.9 uCi of the radiotracer i
0.1 ml of 50% aq. EtOH.
The animals were injected with 3.7 uCi of the radiotracer in 0.1 ml of 50

[4] = tested on: vesamicol receptor; assay: Ex vivo autoradiography of rat brain; conditions: 3 hrs after iv
Protocol: Ex-vivo Autoradiographic Studies
Two groups of male Wistar rats (n=2) were used in these experiments. Each animal in the first group received an i.v. injection of (+)-[^125 I]12h (385 uCi in 0.1/ml of 50% aq. EtOH). Similarly, animals in the second group received 330 uCi of (-)-[^125 I]12h (in 0.1 ml of 50% aq. EtOH). After 3 hrs, the animals were sacrificed by decapitation. The brains were carefully removed, embedded in Tissue Tek OCT medium and frozen to […] Twenty micron thick coronal brain slices were subsequently obtained by sectioning rostrocaudally with a Reichert HistoSTAT microtome at -15°. The tissue sections were apposed to Kodak NMC film accompanied by ^125 I-labeled external standards (^125 I-Microscales from Amersham). For delineation of cytoarchitecture, adjacent tissue sections were subjected to Nissl staining.

[5] = Blocking experiment 2: effect of vesamicol pretreatment on radiotracer accumulation; conditions: rat, iv, 2 uCi, 30 min postradiotracer
Protocol: Two separate experiments each utilizing two groups of male Wistar rats (n=3) were performed. […]
At time = 0, animals in group 1 injected intravenously with vehicle (50%)
aq. EtOH; 0.2 ml), while animals in group 2 each received an i.v.
injection of (dl)vesamicol. HCl (1.01 umol/Kg0). After 15 min, both group
were injected with the radiotracer, allowed to recover and sacrificed 30
min postradiotracer injection.

[6] = Group 2: with (dl)vesamicol hydrochloride

O[C@@H]1CCN(Cc2cccc([125I])c2)C[C@H]1N1CCC(c2ccccc2)CC1 (single isomer, unassigned) [(-)-[^125 I]12h, (+)- and (-)-4-hydroxy-1-(3-[I^125]iodobenzyl)-3-(4-phenyl-piperidinyl)piperidine]
tissue uptake at 1 h ([1]; blood, Group 1: radiotracer alone, read-out: Blocking study, blood): 0.09 %ID/g
tissue uptake at 1 h ([1]; blood, Group 2: with (dl)vesamicol hydrochloride, read-out: Blocking study, blood): 0.09 %ID/g
tissue uptake at 1 h ([1]; brain, Group 1: radiotracer alone, read-out: Blocking study, brain): 0.97 %ID/g
tissue uptake at 1 h ([1]; brain, Group 2: with (dl)vesamicol hydrochloride, read-out: Blocking study, brain): 0.29 %ID/g
tissue uptake at 1 h ([1]; gonads, Group 1: radiotracer alone, read-out: Blocking study, gonads): 0.21 %ID/g
tissue uptake at 1 h ([1]; gonads, Group 2: with (dl)vesamicol hydrochloride, read-out: Blocking study, gonads): 0.22 %ID/g
tissue uptake at 1 h ([1]; heart, Group 1: radiotracer alone, read-out: Blocking study, heart): 0.5 %ID/g
tissue uptake at 1 h ([1]; heart, Group 2: with (dl)vesamicol hydrochloride, read-out: Blocking study, heart): 0.16 %ID/g
tissue uptake at 1 h ([1]; kidney, Group 1: radiotracer alone, read-out: Blocking study, kidney): 3.11 %ID/g
tissue uptake at 1 h ([1]; kidney, Group 2: with (dl)vesamicol hydrochloride, read-out: Blocking study, kidney): 0.89 %ID/g
tissue uptake at 1 h ([1]; liver, Group 1: radiotracer alone, read-out: Blocking study, liver): 2.45 %ID/g
tissue uptake at 1 h ([1]; liver, Group 2: with (dl)vesamicol hydrochloride, read-out: Blocking study, liver): 2.31 %ID/g
tissue uptake at 1 h ([1]; lung, Group 1: radiotracer alone, read-out: Blocking study, lung): 1.96 %ID/g
tissue uptake at 1 h ([1]; lung, Group 2: with (dl)vesamicol hydrochloride, read-out: Blocking study, lung): 0.76 %ID/g
tissue uptake at 1 h ([1]; muscle, Group 1: radiotracer alone, read-out: Blocking study, muscle): 0.26 %ID/g
tissue uptake at 1 h ([1]; muscle, Group 2: with (dl)vesamicol hydrochloride, read-out: Blocking study, muscle): 0.12 %ID/g
tissue uptake at 1 h ([1]; spleen, Group 1: radiotracer alone, read-out: Blocking study, spleen): 1.1 %ID/g
tissue uptake at 1 h ([1]; spleen, Group 2: with (dl)vesamicol hydrochloride, read-out: Blocking study, spleen): 0.58 %ID/g
tissue uptake at 1 h ([1]; thyroid, Group 1: radiotracer alone, read-out: Blocking study, thyroid): 5.58 %ID/g
tissue uptake at 1 h ([1]; thyroid, Group 2: with (dl)vesamicol hydrochloride, read-out: Blocking study, thyroid): 6.55 %ID/g
Blocking study, ratio brain/blood ([2]; Group 1: radiotracer alone): 10.44
Blocking study, ratio heart/blood ([2]; Group 1: radiotracer alone): 5.37
Blocking study, ratio brain/blood [2, 6]: 3.30
Blocking study, ratio heart/blood [2, 6]: 1.87
Ratio brain/blood ([3]; 5 min, iv): 4.27
Ratio heart/blood ([3]; 5 min, iv): 6.07
radioactivity in brain ([3]; 5 min post-injection, iv): 1.67 % of the injected dose
Ratio brain/blood ([3]; 30 min, iv): 9.06
Ratio heart/blood ([3]; 30 min, iv): 6.87
Ratio brain/blood ([3]; 60 min, iv): 8.51
Ratio heart/blood ([3]; 60 min, iv): 5.97
Ratio brain/blood ([3]; 180 min, iv): 9.87
Ratio heart/blood ([3]; 180 min, iv): 5.32
brain accumulation and retention (in words) ([3]; compared with the (+)-isomer): higher accumulation and longer retention in the brain
tissue uptake at 5 min ([3]; blood, 5 min, iv, read-out: Tissue distribution, blood): 0.22 %ID/g
tissue uptake at 0.5 h ([3]; blood, 30 min, iv, read-out: Tissue distribution, blood): 0.11 %ID/g
tissue uptake at 1 h ([3]; blood, 60 min, iv, read-out: Tissue distribution, blood): 0.1 %ID/g
tissue uptake at 3 h ([3]; blood, 180 min, iv, read-out: Tissue distribution, blood): 0.1 %ID/g
tissue uptake at 5 min ([3]; brain, 5 min, iv, read-out: Tissue distribution, brain): 0.92 %ID/g
tissue uptake at 0.5 h ([3]; brain, 30 min, iv, read-out: Tissue distribution, brain): 0.99 %ID/g
tissue uptake at 1 h ([3]; brain, 60 min, iv, read-out: Tissue distribution, brain): 0.83 %ID/g
tissue uptake at 3 h ([3]; brain, 180 min, iv, read-out: Tissue distribution, brain): 0.92 %ID/g
tissue uptake at 5 min ([3]; gonads, 5 min, iv, read-out: Tissue distribution, gonads): 0.19 %ID/g
tissue uptake at 0.5 h ([3]; gonads, 30 min, iv, read-out: Tissue distribution, gonads): 0.23 %ID/g
tissue uptake at 1 h ([3]; gonads, 60 min, iv, read-out: Tissue distribution, gonads): 0.17 %ID/g
tissue uptake at 3 h ([3]; gonads, 180 min, iv, read-out: Tissue distribution, gonads): 0.2 %ID/g
tissue uptake at 5 min ([3]; heart, 5 min, iv, read-out: Tissue distribution, heart): 1.32 %ID/g
tissue uptake at 0.5 h ([3]; heart, 30 min, iv, read-out: Tissue distribution, heart): 0.75 %ID/g
tissue uptake at 1 h ([3]; heart, 60 min, iv, read-out: Tissue distribution, heart): 0.58 %ID/g
tissue uptake at 3 h ([3]; heart, 180 min, iv, read-out: Tissue distribution, heart): 0.5 %ID/g
tissue uptake at 5 min ([3]; kidney, 5 min, iv, read-out: Tissue distribution, kidney): 3.71 %ID/g
tissue uptake at 0.5 h ([3]; kidney, 30 min, iv, read-out: Tissue distribution, kidney): 3.53 %ID/g
tissue uptake at 1 h ([3]; kidney, 60 min, iv, read-out: Tissue distribution, kidney): 3.13 %ID/g
tissue uptake at 3 h ([3]; kidney, 180 min, iv, read-out: Tissue distribution, kidney): 3.27 %ID/g
tissue uptake at 5 min ([3]; liver, 5 min, iv, read-out: Tissue distribution, liver): 2.07 %ID/g
tissue uptake at 0.5 h ([3]; liver, 30 min, iv, read-out: Tissue distribution, liver): 2.35 %ID/g
tissue uptake at 1 h ([3]; liver, 60 min, iv, read-out: Tissue distribution, liver): 2.63 %ID/g
tissue uptake at 3 h ([3]; liver, 180 min, iv, read-out: Tissue distribution, liver): 2.23 %ID/g
tissue uptake at 5 min ([3]; lung, 5 min, iv, read-out: Tissue distribution, lung): 5.9 %ID/g
tissue uptake at 0.5 h ([3]; lung, 30 min, iv, read-out: Tissue distribution, lung): 3.21 %ID/g
tissue uptake at 1 h ([3]; lung, 60 min, iv, read-out: Tissue distribution, lung): 2.41 %ID/g
tissue uptake at 3 h ([3]; lung, 180 min, iv, read-out: Tissue distribution, lung): 2.01 %ID/g
tissue uptake at 5 min ([3]; muscle, 5 min, iv, read-out: Tissue distribution, muscle): 0.46 %ID/g
tissue uptake at 0.5 h ([3]; muscle, 30 min, iv, read-out: Tissue distribution, muscle): 0.3 %ID/g
tissue uptake at 1 h ([3]; muscle, 60 min, iv, read-out: Tissue distribution, muscle): 0.28 %ID/g
tissue uptake at 3 h ([3]; muscle, 180 min, iv, read-out: Tissue distribution, muscle): 0.27 %ID/g
tissue uptake at 5 min ([3]; spleen, 5 min, iv, read-out: Tissue distribution, spleen): 1.04 %ID/g
tissue uptake at 0.5 h ([3]; spleen, 30 min, iv, read-out: Tissue distribution, spleen): 1.24 %ID/g
tissue uptake at 1 h ([3]; spleen, 60 min, iv, read-out: Tissue distribution, spleen): 1.17 %ID/g
tissue uptake at 3 h ([3]; spleen, 180 min, iv, read-out: Tissue distribution, spleen): 1.28 %ID/g
tissue uptake at 5 min ([3]; thyroid, 5 min, iv, read-out: Tissue distribution, thyroid): 2.67 %ID/g
tissue uptake at 0.5 h ([3]; thyroid, 30 min, iv, read-out: Tissue distribution, thyroid): 3.15 %ID/g
tissue uptake at 1 h ([3]; thyroid, 60 min, iv, read-out: Tissue distribution, thyroid): 5.87 %ID/g
tissue uptake at 3 h ([3]; thyroid, 180 min, iv, read-out: Tissue distribution, thyroid): 11.6 %ID/g
brain level over time (in words) ([3]; throughout the study (5 to 180 min)): remained essentially unchanged
brain regional distribution: cortex, caudate-putamen, hippocampus and red nucleus [4]: high levels of radioactivity
levels in cortex compared with caudate-putamen [4]: slightly higher than those observed in the caudate-putamen
tissue uptake at 0.5 h ([5]; blood, Group 1: vehicle pretreatment, read-out: Accumulation after pretreatment, blood): 0.11 %ID/g
tissue uptake at 0.5 h ([5]; blood, Group 2: (dl)vesamicol.HCl 1.01 umol/Kg pretreatment, read-out: Accumulation after pretreatment, blood): 0.12 %ID/g
tissue uptake at 0.5 h ([5]; brain, Group 1: vehicle pretreatment, read-out: Accumulation after pretreatment, brain): 0.68 %ID/g
tissue uptake at 0.5 h ([5]; brain, Group 2: (dl)vesamicol.HCl 1.01 umol/Kg pretreatment, read-out: Accumulation after pretreatment, brain): 0.34 %ID/g
tissue uptake at 0.5 h ([5]; gonads, Group 1: vehicle pretreatment, read-out: Accumulation after pretreatment, gonads): 0.15 %ID/g
tissue uptake at 0.5 h ([5]; gonads, Group 2: (dl)vesamicol.HCl 1.01 umol/Kg pretreatment, read-out: Accumulation after pretreatment, gonads): 0.16 %ID/g
tissue uptake at 0.5 h ([5]; heart, Group 1: vehicle pretreatment, read-out: Accumulation after pretreatment, heart): 0.59 %ID/g
tissue uptake at 0.5 h ([5]; heart, Group 2: (dl)vesamicol.HCl 1.01 umol/Kg pretreatment, read-out: Accumulation after pretreatment, heart): 0.3 %ID/g
tissue uptake at 0.5 h ([5]; kidney, Group 1: vehicle pretreatment, read-out: Accumulation after pretreatment, kidney): 2.45 %ID/g
tissue uptake at 0.5 h ([5]; kidney, Group 2: (dl)vesamicol.HCl 1.01 umol/Kg pretreatment, read-out: Accumulation after pretreatment, kidney): 1.13 %ID/g
tissue uptake at 0.5 h ([5]; liver, Group 1: vehicle pretreatment, read-out: Accumulation after pretreatment, liver): 1.91 %ID/g
tissue uptake at 0.5 h ([5]; liver, Group 2: (dl)vesamicol.HCl 1.01 umol/Kg pretreatment, read-out: Accumulation after pretreatment, liver): 1.89 %ID/g
tissue uptake at 0.5 h ([5]; lung, Group 1: vehicle pretreatment, read-out: Accumulation after pretreatment, lung): 2.36 %ID/g
tissue uptake at 0.5 h ([5]; lung, Group 2: (dl)vesamicol.HCl 1.01 umol/Kg pretreatment, read-out: Accumulation after pretreatment, lung): 1.59 %ID/g
tissue uptake at 0.5 h ([5]; muscle, Group 1: vehicle pretreatment, read-out: Accumulation after pretreatment, muscle): 0.18 %ID/g
tissue uptake at 0.5 h ([5]; muscle, Group 2: (dl)vesamicol.HCl 1.01 umol/Kg pretreatment, read-out: Accumulation after pretreatment, muscle): 0.16 %ID/g
tissue uptake at 0.5 h ([5]; spleen, Group 1: vehicle pretreatment, read-out: Accumulation after pretreatment, spleen): 1.05 %ID/g
tissue uptake at 0.5 h ([5]; spleen, Group 2: (dl)vesamicol.HCl 1.01 umol/Kg pretreatment, read-out: Accumulation after pretreatment, spleen): 0.8 %ID/g
tissue uptake at 0.5 h ([5]; thyroid, Group 1: vehicle pretreatment, read-out: Accumulation after pretreatment, thyroid): 2.62 %ID/g
tissue uptake at 0.5 h ([5]; thyroid, Group 2: (dl)vesamicol.HCl 1.01 umol/Kg pretreatment, read-out: Accumulation after pretreatment, thyroid): 4.56 %ID/g
